The structures appear in SMILES notation.
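Further: spheroids exposed to agents for 7 days.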

The first experiment has as its system CN0375-F725-PDC KRAS spheroid viability. As to the kind of experiment: Anticancer human tumor CN0375-F725-PDC patient-derived colon carcinoma cell line growth inhibition [KRAS2]. Conditions: second compound 0.316 µM; first compound 10 µM; active compounds read low; spheroids with HUVEC and MSC. The essentials: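 KRAS-mutant tumor cells were grown as spheroids with HUVEC endothelial cells and human MSCs as stroma. Targeted agents were tested alone and with KRAS pathway inhibitors. Doses started at or near clinical Cmax, or 10 microM, descending half-log.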
As for `COc1cc2nccc(Oc3ccc(NC(=O)C4(C(=O)Nc5ccc(F)cc5)CC4)cc3)c2cc1OC` + C=CC(=O)N1CCN(c2nc(=O)n(-c3c(C)ccnc3C(C)C)c3nc(-c4c(O)cccc4F)c(F)cc23)C(C)C1, the viability, T/C (as a rule, the result in the treated group divided by that in the control group, in per cent) was 62.1%.

Still in this experiment, the particulars now being: second compound 1 µM; first compound 0.0316 µM; active compounds read low; spheroids with HUVEC and MSC.
Take `COc1cc(Nc2ncc3c(n2)-c2ccc(Cl)cc2C(c2c(F)cccc2OC)=NC3)ccc1C(=O)O` + COc1cc2nc(C)nc(NC(C)c3cc(N)cc(C(F)(F)F)c3)c2cc1OC1CCOC1: the viability, T/C is 91.7%.

For the compound `CC1OCC2(CCN(c3cnc(Sc4ccnc(N)c4Cl)c(N)n3)CC2)C1N` (stereo unspecified) + COc1cc2nc(C)nc(NC(C)c3cc(N)cc(C(F)(F)F)c3)c2cc1OC1CCOC1, the viability, T/C is 91.3%.

Turning to `CC(C)NCC(C(=O)N1CCN(c2ncnc3c2C(C)CC3O)CC1)c1ccc(Cl)cc1` (stereo unspecified) + CC1OCC2(CCN(c3cnc(Sc4ccnc(N)c4Cl)c(N)n3)CC2)C1N, the viability, T/C was 90.5%.

With `COc1cc2nccc(Oc3ccc(NC(=O)C4(C(=O)Nc5ccc(F)cc5)CC4)cc3)c2cc1OC` + C=CC(=O)N1CCN(c2nc(=O)n(-c3c(C)ccnc3C(C)C)c3nc(-c4c(O)cccc4F)c(F)cc23)C(C)C1, the viability, T/C is 114%.

The experiment is the same for the next values; noted with them: second compound 1 µM; first compound 0.1 µM; active compounds read low; spheroids with HUVEC and MSC.
Consider `COc1cc(Nc2ncc3c(n2)-c2ccc(Cl)cc2C(c2c(F)cccc2OC)=NC3)ccc1C(=O)O` + COc1cc2nc(C)nc(NC(C)c3cc(N)cc(C(F)(F)F)c3)c2cc1OC1CCOC1, for which the viability, T/C is 95.6%.

On to `CC1OCC2(CCN(c3cnc(Sc4ccnc(N)c4Cl)c(N)n3)CC2)C1N` (stereo unspecified) + COc1cc2nc(C)nc(NC(C)c3cc(N)cc(C(F)(F)F)c3)c2cc1OC1CCOC1, for which the viability, T/C is 87.2%.

As for `CC(C)NCC(C(=O)N1CCN(c2ncnc3c2C(C)CC3O)CC1)c1ccc(Cl)cc1` (stereo unspecified) + CC1OCC2(CCN(c3cnc(Sc4ccnc(N)c4Cl)c(N)n3)CC2)C1N, the viability, T/C was 88.7%.

Turning to `COc1cc2nccc(Oc3ccc(NC(=O)C4(C(=O)Nc5ccc(F)cc5)CC4)cc3)c2cc1OC` + C=CC(=O)N1CCN(c2nc(=O)n(-c3c(C)ccnc3C(C)C)c3nc(-c4c(O)cccc4F)c(F)cc23)C(C)C1, the viability, T/C is 117%.

Still in this experiment, the particulars now being: second compound 1 µM; first compound 0.316 µM; active compounds read low; spheroids with HUVEC and MSC.
As for `COc1cc(Nc2ncc3c(n2)-c2ccc(Cl)cc2C(c2c(F)cccc2OC)=NC3)ccc1C(=O)O` + COc1cc2nc(C)nc(NC(C)c3cc(N)cc(C(F)(F)F)c3)c2cc1OC1CCOC1, the viability, T/C was 89.8%.

As to `CC1OCC2(CCN(c3cnc(Sc4ccnc(N)c4Cl)c(N)n3)CC2)C1N` (stereo unspecified) + COc1cc2nc(C)nc(NC(C)c3cc(N)cc(C(F)(F)F)c3)c2cc1OC1CCOC1, the viability, T/C is 81.3%.

As for `CC(C)NCC(C(=O)N1CCN(c2ncnc3c2C(C)CC3O)CC1)c1ccc(Cl)cc1` (stereo unspecified) + CC1OCC2(CCN(c3cnc(Sc4ccnc(N)c4Cl)c(N)n3)CC2)C1N, the viability, T/C was 84.3%.

Consider `COc1cc2nccc(Oc3ccc(NC(=O)C4(C(=O)Nc5ccc(F)cc5)CC4)cc3)c2cc1OC` + C=CC(=O)N1CCN(c2nc(=O)n(-c3c(C)ccnc3C(C)C)c3nc(-c4c(O)cccc4F)c(F)cc23)C(C)C1, for which the viability, T/C is 94.7%.

The same experiment, now with this note: second compound 1 µM; first compound 1 µM; active compounds read low; spheroids with HUVEC and MSC.
Regarding `COc1cc(Nc2ncc3c(n2)-c2ccc(Cl)cc2C(c2c(F)cccc2OC)=NC3)ccc1C(=O)O` + COc1cc2nc(C)nc(NC(C)c3cc(N)cc(C(F)(F)F)c3)c2cc1OC1CCOC1, the viability, T/C is 85.1%.

For `CC1OCC2(CCN(c3cnc(Sc4ccnc(N)c4Cl)c(N)n3)CC2)C1N` (stereo unspecified) + COc1cc2nc(C)nc(NC(C)c3cc(N)cc(C(F)(F)F)c3)c2cc1OC1CCOC1, the viability, T/C is 73.9%.

With `CC(C)NCC(C(=O)N1CCN(c2ncnc3c2C(C)CC3O)CC1)c1ccc(Cl)cc1` (stereo unspecified) + CC1OCC2(CCN(c3cnc(Sc4ccnc(N)c4Cl)c(N)n3)CC2)C1N, the viability, T/C was 74.8%.

In the case of `COc1cc2nccc(Oc3ccc(NC(=O)C4(C(=O)Nc5ccc(F)cc5)CC4)cc3)c2cc1OC` + C=CC(=O)N1CCN(c2nc(=O)n(-c3c(C)ccnc3C(C)C)c3nc(-c4c(O)cccc4F)c(F)cc23)C(C)C1, the viability, T/C is 91.1%.

Staying with this experiment, now noted: second compound 1 µM; first compound 3.16 µM; active compounds read low; spheroids with HUVEC and MSC.
Regarding `COc1cc(Nc2ncc3c(n2)-c2ccc(Cl)cc2C(c2c(F)cccc2OC)=NC3)ccc1C(=O)O` + COc1cc2nc(C)nc(NC(C)c3cc(N)cc(C(F)(F)F)c3)c2cc1OC1CCOC1, the viability, T/C is 83.9%.

In the case of `CC1OCC2(CCN(c3cnc(Sc4ccnc(N)c4Cl)c(N)n3)CC2)C1N` (stereo unspecified) + COc1cc2nc(C)nc(NC(C)c3cc(N)cc(C(F)(F)F)c3)c2cc1OC1CCOC1, the viability, T/C was 68.7%.

Take `CC(C)NCC(C(=O)N1CCN(c2ncnc3c2C(C)CC3O)CC1)c1ccc(Cl)cc1` (stereo unspecified) + CC1OCC2(CCN(c3cnc(Sc4ccnc(N)c4Cl)c(N)n3)CC2)C1N: the viability, T/C is 75.9%.

In the case of `COc1cc2nccc(Oc3ccc(NC(=O)C4(C(=O)Nc5ccc(F)cc5)CC4)cc3)c2cc1OC` + C=CC(=O)N1CCN(c2nc(=O)n(-c3c(C)ccnc3C(C)C)c3nc(-c4c(O)cccc4F)c(F)cc23)C(C)C1, the viability, T/C was 58.2%.

The same experiment, now with this note: second compound 1 µM; first compound 10 µM; active compounds read low; spheroids with HUVEC and MSC.
Regarding `COc1cc(Nc2ncc3c(n2)-c2ccc(Cl)cc2C(c2c(F)cccc2OC)=NC3)ccc1C(=O)O` + COc1cc2nc(C)nc(NC(C)c3cc(N)cc(C(F)(F)F)c3)c2cc1OC1CCOC1, the viability, T/C is 69.4%.

Regarding `CC1OCC2(CCN(c3cnc(Sc4ccnc(N)c4Cl)c(N)n3)CC2)C1N` (stereo unspecified) + COc1cc2nc(C)nc(NC(C)c3cc(N)cc(C(F)(F)F)c3)c2cc1OC1CCOC1, the viability, T/C was 60.4%.

`CC(C)NCC(C(=O)N1CCN(c2ncnc3c2C(C)CC3O)CC1)c1ccc(Cl)cc1` (stereo unspecified) + CC1OCC2(CCN(c3cnc(Sc4ccnc(N)c4Cl)c(N)n3)CC2)C1N: the viability, T/C was 66.2%.

For the compound `COc1cc2nccc(Oc3ccc(NC(=O)C4(C(=O)Nc5ccc(F)cc5)CC4)cc3)c2cc1OC` + C=CC(=O)N1CCN(c2nc(=O)n(-c3c(C)ccnc3C(C)C)c3nc(-c4c(O)cccc4F)c(F)cc23)C(C)C1, the viability, T/C was 71.1%.

The experiment is the same for the next values; noted with them: second compound 3.16 µM; first compound 0.0316 µM; active compounds read low; spheroids with HUVEC and MSC.
Turning to `COc1cc(Nc2ncc3c(n2)-c2ccc(Cl)cc2C(c2c(F)cccc2OC)=NC3)ccc1C(=O)O` + COc1cc2nc(C)nc(NC(C)c3cc(N)cc(C(F)(F)F)c3)c2cc1OC1CCOC1, the viability, T/C is 84.8%.

`CC1OCC2(CCN(c3cnc(Sc4ccnc(N)c4Cl)c(N)n3)CC2)C1N` (stereo unspecified) + COc1cc2nc(C)nc(NC(C)c3cc(N)cc(C(F)(F)F)c3)c2cc1OC1CCOC1: the viability, T/C is 80.9%.

Take `CC(C)NCC(C(=O)N1CCN(c2ncnc3c2C(C)CC3O)CC1)c1ccc(Cl)cc1` (stereo unspecified) + CC1OCC2(CCN(c3cnc(Sc4ccnc(N)c4Cl)c(N)n3)CC2)C1N: the viability, T/C was 87.4%.

`COc1cc2nccc(Oc3ccc(NC(=O)C4(C(=O)Nc5ccc(F)cc5)CC4)cc3)c2cc1OC` + C=CC(=O)N1CCN(c2nc(=O)n(-c3c(C)ccnc3C(C)C)c3nc(-c4c(O)cccc4F)c(F)cc23)C(C)C1: the viability, T/C was 109%.

Still in this experiment, the particulars now being: second compound 3.16 µM; first compound 0.1 µM; active compounds read low; spheroids with HUVEC and MSC.
With `COc1cc(Nc2ncc3c(n2)-c2ccc(Cl)cc2C(c2c(F)cccc2OC)=NC3)ccc1C(=O)O` + COc1cc2nc(C)nc(NC(C)c3cc(N)cc(C(F)(F)F)c3)c2cc1OC1CCOC1, the viability, T/C is 88.3%.

For the compound `CC1OCC2(CCN(c3cnc(Sc4ccnc(N)c4Cl)c(N)n3)CC2)C1N` (stereo unspecified) + COc1cc2nc(C)nc(NC(C)c3cc(N)cc(C(F)(F)F)c3)c2cc1OC1CCOC1, the viability, T/C is 73.8%.

In the case of `CC(C)NCC(C(=O)N1CCN(c2ncnc3c2C(C)CC3O)CC1)c1ccc(Cl)cc1` (stereo unspecified) + CC1OCC2(CCN(c3cnc(Sc4ccnc(N)c4Cl)c(N)n3)CC2)C1N, the viability, T/C is 83.9%.

For the compound `COc1cc2nccc(Oc3ccc(NC(=O)C4(C(=O)Nc5ccc(F)cc5)CC4)cc3)c2cc1OC` + C=CC(=O)N1CCN(c2nc(=O)n(-c3c(C)ccnc3C(C)C)c3nc(-c4c(O)cccc4F)c(F)cc23)C(C)C1, the viability, T/C was 107%.

The experiment is the same for the next values; noted with them: second compound 3.16 µM; first compound 0.316 µM; active compounds read low; spheroids with HUVEC and MSC.
As to `COc1cc(Nc2ncc3c(n2)-c2ccc(Cl)cc2C(c2c(F)cccc2OC)=NC3)ccc1C(=O)O` + COc1cc2nc(C)nc(NC(C)c3cc(N)cc(C(F)(F)F)c3)c2cc1OC1CCOC1, the viability, T/C is 72.7%.

Turning to `CC1OCC2(CCN(c3cnc(Sc4ccnc(N)c4Cl)c(N)n3)CC2)C1N` (stereo unspecified) + COc1cc2nc(C)nc(NC(C)c3cc(N)cc(C(F)(F)F)c3)c2cc1OC1CCOC1, the viability, T/C was 69%.

For the compound `CC(C)NCC(C(=O)N1CCN(c2ncnc3c2C(C)CC3O)CC1)c1ccc(Cl)cc1` (stereo unspecified) + CC1OCC2(CCN(c3cnc(Sc4ccnc(N)c4Cl)c(N)n3)CC2)C1N, the viability, T/C is 76.5%.

The values are drawn from PubChem BioAssay AID1963860 (Molecular Pharmacology Branch, DTP, NCI, 2024).
